Measurements as given in patent publication US8119691B2, “Method for treating airway hyper-responsiveness with lipoxin analogs” (National Institutes of Health (NIH), priority 2001, dated 2012).
“Also recorded” adds a separate entry of the source.

Key:
[1] = system: murine dorsal air pouches; conditions: murine dorsal air pouches (refs. 7, 16); cited from earlier work
mouse ear skin = assay: Eosinophil tissue infiltration: EPO activity in mouse ear skin after topical LTB4 plus PGE2; assay type: in vivo; conditions: topical LXa 10 μg per ear, LTB4 1 μg + PGE2 1 μg, 13-16 h
Protocol: FIG. 6. Expression of human ALX in transgenic mice prevents eosinophil trafficking. LTB4 (1 μg) and PGE2 (1 μg) were topically applied (13-16 h) to mouse ear skin and EPO activity in tissue biopsies was determined by bromination of HPA (see Methods). Values represent the mean±SEM for pmoles Br-HPA per μg total protein for Non-tg littermates (n=6) or BLT-tg (n=2) mice in the absence or presence of topical LXa (10 μg per ear) and 2 separate ALX-tg lines (n=4). *P<0.05 by Student's T-test compared to littermate controls.
Eosinophil tissue infiltration. […] EPO activity was monitored by mono-bromination of HPA (Br-HPA). […] Trimethyl silylated HPA, Br-HPA and d4-tyrosine were detected by GC-MS (GC model #6890, MS model #5973, Hewlett Packard, San Fernando, Calif.). […] EPO activity was quantitated by percent conversion of HPA to Br-HPA, taking into account the recovery of the internal standard (>80%) and normalized for the samples' protein content (determined by BioRad protein reagent) (BioRad, Hercules, Calif.).

[2] = system: OVA sensitized and challenged mice; assay: Mediator profile (cytokines, lipid mediators) in BAL fluid by ELISA, OVA sensitized and challenged mice; assay type: in vivo, mouse (BALB/c); conditions: LXa 10 μg i.v.
Protocol: FIG. 3. […] Bronchoalveolar lavage fluids were obtained from OVA sensitized and challenged mice. Leukocytes in bronchoalveolar lavage fluid were enumerated and identified after Wright-Giemsa stain (a). Mediator profile of (b) specific cytokines (IL-5, IL-12, IL-13, eotaxin and TNFα), and lipid mediators, including PGE2 (c), LTB4 and cysLT's (d) were determined by ELISA's in materials from control animals and those receiving LXa (10 μg, i.v.). Results are expressed as mean±SEM (n≧6, d≧2). *P<0.05 by Student's t-test compared to control animals.
Sensitization and challenge protocols. Five to seven week old male BALB/c (Charles River Laboratories, Wilmington, Mass.) or female hCD11b-hALX FvB transgenic mice were housed in isolation cages under viral antibody-free conditions. After Harvard Medical Area IRB approval (Protocol #02570), mice were sensitized with intraperitoneal injections of ovalbumin (OVA) (Grade III; Sigma Chemical Co., St. Louis, Mo.) (10 μg) plus 1 mg aluminum hydroxide (ALUM) (J.T. Baker Chemical Co.; Phillipsburg, N.J.) as adjuvant in 0.2 ml PBS on days 0 and 7. On days 14, 15, 16 and 17, the mice received 10 μg/mouse of an analog (ref. 16) of LXA4 (15-epi,16-para-fluoro-phenoxy-LXA4-methyl ester, LXa) or PBS with 1.6 mM CaCl2 and 1.6 mM MgCl2 (0.1 ml) by intravenous injection at least 1 h prior to an aerosol challenge containing either PBS or 6% OVA for 25 min/day. The analog was designed to resist rapid enzymatic inactivation and was based on the structure of the aspirin-triggered 15-epi-LXA4 (ref. 16), which carries its carbon 15 position alcohol in the R configuration or epimeric (R) to native LXA4. On day 18, 24 h after the last aerosol challenge, airway responsiveness to intravenous methacholine (33-1000 μg/kg) was measured, bilateral bronchoalveolar lavage (BAL) (2 aliquots of 1 ml PBS plus 0.6 mM EDTA) was performed and tissues (whole blood, lungs, mediastinal lymph nodes and spleen) were harvested for histological analysis. Lung resistance (RL) was measured using a sealed constant mass plethysmograph. The effective dose of methacholine required to increase RL to 200% of control values was defined as the ED200 and used as an index of airway responsiveness (as in refs. 14, 15). For mice studied using a whole body plethysmograph to assess airway responsiveness (Buxco), each mouse was placed into a chamber and box pressure/time waveform was analyzed to yield the indicator of airflow obstruction, enhanced pause (Penh). PBS or methacholine (100 mg/ml) was given by aerosol through an inlet of the chamber for 4.5 min. Readings were initiated at 3 min and continued for 12 min. Peak and one min average Penh values were determined. Serum total IgE levels were determined by ELISA (Crystal Chem, Chicago, Ill.). In situ hybridization of murine ALX was performed using an anti-sense oligonucleotide probe (534 bp in length) corresponding to nucleic acids +581-+1115 (GenBank Accession No. NM008042) with the assistance of the Dana-Farber/Harvard Cancer Center Pathology Core Facility (under the direction of Dr. Massimo Loda).
Allergen-initiated respiratory inflammation. Measurement of inflammatory mediators was determined in cell-free BAL fluid (2000 g, 10 min) by sensitive and specific ELISA's, in tandem, for interleukin-5 (IL-5), IL-13, eotaxin, tumor necrosis factor (TNFα) (R&D Systems, Minneapolis, Minn.), LTB4, cysteinyl LT, PGE2 (Cayman Chemical Co., Ann Arbor, Mich.), and LXA4 (Neogen, Lexington, Ky.). Cells were resuspended in HBSS, enumerated by hemocytometer, and concentrated onto microscope slides by cytocentrifuge (STATspin) (265 g). Cells were stained with a Wright-Giemsa stain (Sigma Chemical Co.) to determine leukocyte differentials (after counting ≧200 cells).

In the case of `COC(=O)CCC[C@H](O)[C@H](O)/C=C/C=C/C=C\C=C\[C@H](O)COc1ccc(F)cc1` [LXa, 15-epi,16-para-fluoro-phenoxy-LXA4-methyl ester], the “neutrophil accumulation and exudate formation” value [1] is listed as “blocks neutrophil accumulation and exudate formation”, the “eicosanoid-stimulated skin EPO activity” value (mouse ear skin; Non-tg mice) is listed as “inhibited eicosanoid-stimulated skin EPO activity” and the “eicosanoid-stimulated skin EPO activity” value (mouse ear skin; mice with increased expression of LTB4 receptors (BLT-tg)) is listed as “inhibited eicosanoid-stimulated skin EPO activity”. For the same molecule, the “CysLT's in BAL fluid” value [2] was “decreased”, the “IL-5 in BAL fluid” value [2] was “decreased” and the “IL-12 in BAL fluid” value [2] was “not similarly reduced; also recorded: did not significantly alter IL-12 levels”. For the same molecule, the “IL-13 in BAL fluid” value [2] was “decreased”, the “PGE2 in BAL fluid” value [2] was “decreased” and the “TNF in BAL fluid” value [2] was “not similarly reduced”. The “eotaxin in BAL fluid” value [2] was “decreased”.
